Experimental data taken from patent US20040265846A1, “Adrenergic receptors” (DUKE UNIVERSITY, priority 2002, published 2004).
Numbering of substitutions follows the chain as printed.

How the values were obtained:
[1] = molecular target: T1, human α1aAR SNP V311I (Homo sapiens, UniProt P35348, V311I); assay: Competition binding vs [125I]HEAT, SNP V311I; settings: high expressing clone
T1 construct: expressed in transfected cells
T1 sequence (P35348 1-466 V311I): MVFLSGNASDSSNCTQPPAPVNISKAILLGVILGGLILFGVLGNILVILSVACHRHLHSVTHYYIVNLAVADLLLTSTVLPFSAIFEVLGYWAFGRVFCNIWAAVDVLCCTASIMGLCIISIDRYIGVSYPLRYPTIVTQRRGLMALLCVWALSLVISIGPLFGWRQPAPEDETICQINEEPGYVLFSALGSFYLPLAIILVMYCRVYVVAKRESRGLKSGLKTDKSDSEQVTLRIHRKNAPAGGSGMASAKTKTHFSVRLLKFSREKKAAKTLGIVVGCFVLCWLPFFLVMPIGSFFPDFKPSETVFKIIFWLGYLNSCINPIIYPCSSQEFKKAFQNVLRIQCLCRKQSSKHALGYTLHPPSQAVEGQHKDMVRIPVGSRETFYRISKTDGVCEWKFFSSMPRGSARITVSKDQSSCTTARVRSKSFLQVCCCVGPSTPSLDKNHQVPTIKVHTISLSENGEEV

[2] = molecular target: T2, human α1aAR SNP I200S (Homo sapiens, UniProt P35348, I200S); assay: Competition binding vs [125I]HEAT, SNP I200S; settings: high expressing clone
T2 construct: expressed in transfected cells; host or cells: rat-1 fibroblasts (membranes)
T2 sequence (P35348 1-466 I200S): T1 sequence (P35348 1-466 V311I) with I200S, I311V

[3] = molecular target: T1, human α1aAR SNP V311I; assay: NE-stimulated inositol phosphate (IP) production, SNP V311I; format: cell-based
[4] = molecular target: T3, human α1aAR SNP G247R (Homo sapiens, UniProt P35348, G247R); assay: NE-stimulated inositol phosphate (IP) production, SNP G247R; format: cell-based; settings: low-expression stable clones
T3 construct: expressed in transfected cells
T3 sequence (P35348 1-466 G247R): T1 sequence (P35348 1-466 V311I) with G247R, I311V

CNC[C@H](O)c1cccc(O)c1 [phenylephrine]
Ki increase vs WT (decrease in receptor affinity) [1]: ~3 fold

COc1ccccc1N1CCN(CCCNc2c(C)c(=O)n(C)c(=O)n2C)CC1 [5-methylurapidil]
higher affinity vs WT [1]: 3 fold

Cc1ccc(N(CC2=NCCN2)c2cccc(O)c2)cc1 [phentolamine]
Ki increase vs WT (decreased binding affinity) [2]: ~3 fold

NC[C@H](O)c1ccc(O)c(O)c1 [NE, (−)-norepinephrine]
Ki increase vs WT (decrease in receptor affinity) [1]: ~3 fold
decrease in potency of NE-stimulated IP formation compared with WT ([3]; high-expression stable clone): 2.4 fold
EC50 for NE vs WT ([3]; low-expression stable clone): significantly increased EC50
EC50 for NE vs WT ([3]; transiently transfected rat-1 fibroblasts): significantly increased EC50
maximum IP production (maximum activity) vs WT [4]: significantly higher maximum activity
